Values of other authors in patent US8097259B2, “Method for prevention and treatment of Alzheimer's disease” (SunWay Biotech Co., Ltd., priority 2007, dated 2012).

Tested on: Alzheimer's disease
Details: Wolozin et al. 2000

## CC[C@H](C)C(=O)O[C@H]1C[C@@H](C)C=C2C=C[C@H](C)[C@H](CC[C@@H]3C[C@@H](O)CC(=O)O3)[C@H]21 [lovastatin]
  results for AD treatment among statins: best results
